In general, Dmax refers to the greatest extent of degradation seen. A word on the DC50: it is the concentration at which degradation of the target reaches its halfway point. Low readings indicate a more potent degrader, high ones a less potent degrader.

The source of these data is patent US20250206732A1, “COMPOUNDS AND METHODS FOR THE TARGETED DEGRADATION OF KRAS” (Arvinas Operations, Inc., priority 2022, published 2025).

The target of one assay is T1, AsPC-1 HiBiT-KRASG12D (Homo sapiens, UniProt P01116, G12D).
T1 construct: insert the HiBiT tag onto the N-terminus of one or more of the endogenous KRAS alleles; endogenous in cells; host or cells: AsPC-1 (ATCC CRL-1682), CRISPR-Cas9 knock-in clone, one tagged allele
The assay is described as follows: HiBiT degradation assay (G12D), AsPC-1 HiBiT-KRASG12D cells. Format: cell-based. As to conditions: 24 hours treatment; for Dmax: ASPC1, AsPC-1 HiBiT-KRASG12D cells, maximum degradation observed; for DC50: AsPC-1 HiBiT-KRASG12D cells, HiBiT luminescence. A digest of the protocol: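 AsPC-1 cells (homozygous G12D) carrying a CRISPR knock-in N-terminal HiBiT tag on endogenous KRAS were treated with compounds for 24 hours at 37° C, 5% CO2, in triplicate. Alamar blue viability was read first, then cells were washed and lysed with Nano-Glo HiBiT reagent for 45 minutes before luminescence reading.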
On the technique in general: With HiBiT, luminescence reflects the tagged protein that the partner subunit can reach.

A further assay has as its target T2, SW1573 HiBiT-KRASG12C (Homo sapiens, UniProt P01116, G12C).
T2 construct: expressed in transfected cells
The assay is described as follows: HiBiT degradation assay (G12C), SW1573 HiBiT-KRASG12C cells.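 Note: Letter grades: C is 1000 to 3000 nM and D is above 3000 nM.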 The class given is cell-based. As to conditions: 24 hours treatment, HiBiT luminescence. A digest of the protocol:
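SW1573 cells expressing N-terminal HiBiT-KRASG12C (clone E6) treated 24 h at 37 °C with 10 μM to 508 pM compound in 0.5% DMSO, triplicate. HiBiT lytic luminescence normalized to DMSO, 4-parameter fit gives DC50 and Dmax; points with ≥50% alamar blue viability loss excluded.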

T2 sequence (P01116 1-188 isoform P01116-2 G12C): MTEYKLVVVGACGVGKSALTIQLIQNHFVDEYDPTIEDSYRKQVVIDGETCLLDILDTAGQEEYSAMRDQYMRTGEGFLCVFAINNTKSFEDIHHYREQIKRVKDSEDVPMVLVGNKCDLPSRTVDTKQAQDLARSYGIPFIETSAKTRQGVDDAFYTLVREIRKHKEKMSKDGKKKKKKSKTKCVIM
T1 sequence (P01116 1-188 isoform P01116-2 G12D): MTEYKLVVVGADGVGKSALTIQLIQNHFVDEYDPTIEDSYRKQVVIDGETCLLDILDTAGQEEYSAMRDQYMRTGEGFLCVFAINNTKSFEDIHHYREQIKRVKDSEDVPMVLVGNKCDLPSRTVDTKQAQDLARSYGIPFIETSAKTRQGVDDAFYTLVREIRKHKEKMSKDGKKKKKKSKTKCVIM

Take `Cc1ncsc1-c1ccc([C@H](C)NC(=O)[C@@H]2C[C@@H](O)CN2C(=O)[C@@H](c2cc(N3CCN(C(=O)OC[C@H]4CC[C@@]5(COc6nc(N7CC8CCC(C7)N8)c7cnc(-c8cc(O)cc9ccccc89)c(F)c7n6)CCCN45)CC3)no2)C(C)C)cc1` [Compound 37, [(3R,7aR)-7a-{[(4-{3,8-diazabicyclo[3.2.1]octan-3-yl}-8-fluoro-7-(3-hydroxynaphthalen-1-yl)pyrido[4,3-d]pyrimidin-2-yl)oxy]methyl}-hexahydro-1H-pyrrolizin-3-yl]methyl 4-{5-[(2R)-1-[(2S,4R)-4-hydroxy-2-{[(1S)-1-[4-(4-methyl-1,3-thiazol-5-yl)phenyl]ethyl]carbamoyl}pyrrolidin-1-yl]-3-methyl-1-oxobutan-2-yl]-1,2-oxazol-3-yl}piperazine-1-carboxylate]: on AsPC-1 HiBiT-KRASG12D, the Dmax was in the range of 80 to 100% and the 50% degradation concentration (DC50) was < 0.6 µM. The half-maximal degradation concentration (DC50) at SW1573 HiBiT-KRASG12C was > 3 µM.

At AsPC-1 HiBiT-KRASG12D, `Cc1ncsc1-c1ccc([C@H](C)NC(=O)[C@@H]2C[C@@H](O)CN2C(=O)[C@@H](c2cc(OCC3CCN(CCOc4nc(N5CC6CCC(C5)N6)c5cnc(-c6cc(O)cc7ccccc67)c(F)c5n4)CC3)no2)C(C)C)cc1` [Compound 22, (2S,4R)-1-[(2R)-2-[3-[[1-[2-[4-(3,8-diazabicyclo[3.2.1]octan-3-yl)-8-fluoro-7-(3-hydroxy-1-naphthyl)pyrido[4,3-d]pyrimidin-2-yl]oxyethyl]-4-piperidyl]methoxy]isoxazol-5-yl]-3-methyl-butanoyl]-4-hydroxy-N-[(1S)-1-[4-(4-methylthiazol-5-yl)phenyl]ethyl]pyrrolidine-2-carboxamide] returned a Dmax of 20 to 60% and a 50% degradation concentration (DC50) of 0.6 to 1 µM. At SW1573 HiBiT-KRASG12C, the “SW1573 HiBiT-KRASG12C DC50 (nM)” value was “C/D*”.

At AsPC-1 HiBiT-KRASG12D, `CCc1cccc2cc(O)cc(-c3ncc4c(N5CC6CCC(C5)N6)nc(OCCN5CCC(OCCOCC(=O)N[C@H](C(=O)N6C[C@H](O)C[C@H]6C(=O)N[C@@H](C)c6ccc(-c7scnc7C)cc6)C(C)(C)C)CC5)nc4c3F)c12` [Compound 11] registered a Dmax of 60 to 80% and a DC50 of 1 to 3 µM. Besides, the DC50 on SW1573 HiBiT-KRASG12C is > 3 µM.

`CCc1cccc2cc(O)cc(-c3ncc4c(N5CC6CCC(C5)N6)nc(OC[C@@]56CCCN5[C@H](COC(=O)N5CCN(c7cc([C@@H](C(=O)N8C[C@H](O)C[C@H]8C(=O)N[C@@H](C)c8ccc(-c9scnc9C)cc8)C(C)C)on7)CC5)CC6)nc4c3F)c12` [Compound 4]: at AsPC-1 HiBiT-KRASG12D, the maximal degradation (Dmax) lay in the range of 20 to 60% and the DC50 is < 0.6 µM. Further, the 50% degradation concentration (DC50) on SW1573 HiBiT-KRASG12C was > 3 µM.
